Measured values taken from ChEMBL document CHEMBL1201862, “PubChem BioAssay data set” (2004).
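In this assay, cells in 96-well plates receive the compound at five concentrations for 48 hours. Endpoints are linearly interpolated between the surrounding concentrations. The concentration for 50% growth inhibition is given as GI50.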 Calls of active or inactive are those of the source. Cut-off read from the data, not from the text of the source: active = GI50 up to about 1.1 µM and inactive = higher.

What was measured:
Assay in all cases: growth of human tumour cells (NCI), 48 h
HOP-92 = tested on: HOP-92
MOLT-4 = tested on: MOLT-4
SK-MEL-2 = tested on: SK-MEL-2
DMS-273 = tested on: DMS-273
SK-MEL-5 = tested on: SK-MEL-5
M14 = tested on: M14
A549 = tested on: A549
HCC 2998 = tested on: HCC 2998
RXF 393 = tested on: RXF 393
CAKI-1 = tested on: CAKI-1
786-0 = tested on: 786-0
Malme-3M = tested on: Malme-3M
OVCAR-3 = tested on: OVCAR-3
SF-295 = tested on: SF-295
NCI-H460 = tested on: NCI-H460
SN12C = tested on: SN12C
CCRF-CEM = tested on: CCRF-CEM
DLD-1 = tested on: DLD-1
SK-OV-3 = tested on: SK-OV-3
UACC-257 = tested on: UACC-257
HOP-18 = tested on: HOP-18
OVCAR-4 = tested on: OVCAR-4
ACHN = tested on: ACHN
SNB-19 = tested on: SNB-19
OVCAR-5 = tested on: OVCAR-5
HL-60 = tested on: HL-60
LXFL 529 = tested on: LXFL 529
M19-MEL = tested on: M19-MEL
SK-MEL-28 = tested on: SK-MEL-28
HT-29 = tested on: HT-29
LOX IMVI = tested on: LOX IMVI
KM12 = tested on: KM12
SW-620 = tested on: SW-620
KM-20L2 = tested on: KM-20L2
TK-10 = tested on: TK-10
UO-31 = tested on: UO-31
U-251 = tested on: U-251
NCI-H23 = tested on: NCI-H23
NCI-H522 = tested on: NCI-H522
UACC-62 = tested on: UACC-62
SF-268 = tested on: SF-268
COLO 205 = tested on: COLO 205
IGROV-1 = tested on: IGROV-1
A498 = tested on: A498
HCT-15 = tested on: HCT-15
EKVX = tested on: EKVX
SNB-75 = tested on: SNB-75
K562 = tested on: K562
SF-539 = tested on: SF-539
RPMI-8226 = tested on: RPMI-8226
OVCAR-8 = tested on: OVCAR-8
HCT-116 = tested on: HCT-116

Question: For `COc1ccc(S(=O)(=O)N(CC(=O)O)c2ccccc2)cc1`, which GI50 (HOP-92) is on record?
Answer: Its GI50 is > 100 µM (inactive).

Question: And the GI50 (MOLT-4)?
Answer: Its GI50 is > 100 µM (inactive).

Question: And the GI50 (SK-MEL-2)?
Answer: Its GI50 is > 100 µM (inactive).

Question: What about the GI50 (DMS-273) of the same compound?
Answer: The GI50 was > 100 µM (inactive).

Question: And the GI50 (SK-MEL-5)?
Answer: The GI50 was > 100 µM (inactive).

Question: And the GI50 (M14)?
Answer: Its GI50 is > 100 µM (inactive).

Question: And the GI50 (A549)?
Answer: The GI50 was > 100 µM (inactive).

Question: What about the GI50 (HCC 2998) of the same compound?
Answer: Its GI50 is > 100 µM (inactive).

Question: What about the GI50 (RXF 393) of the same compound?
Answer: Its GI50 is > 100 µM (inactive).

Question: What about the GI50 (CAKI-1) of the same compound?
Answer: Its GI50 is > 100 µM (inactive).

Question: What about the GI50 (786-0) of the same compound?
Answer: Its GI50 is > 100 µM (inactive).

Question: And the GI50 (Malme-3M)?
Answer: Its GI50 is > 100 µM (inactive).

Question: What about the GI50 (OVCAR-3) of the same compound?
Answer: The GI50 was > 100 µM (inactive).

Question: And the GI50 (SF-295)?
Answer: The GI50 was > 100 µM (inactive).

Question: What about the GI50 (NCI-H460) of the same compound?
Answer: The GI50 was > 100 µM (inactive).

Question: What about the GI50 (SN12C) of the same compound?
Answer: The GI50 was > 100 µM (inactive).

Question: And the GI50 (CCRF-CEM)?
Answer: Its GI50 is > 100 µM (inactive).

Question: And the GI50 (DLD-1)?
Answer: The GI50 was > 100 µM (inactive).

Question: What about the GI50 (SK-OV-3) of the same compound?
Answer: Its GI50 is > 100 µM (inactive).

Question: What about the GI50 (UACC-257) of the same compound?
Answer: The GI50 was > 100 µM (inactive).

Question: And the GI50 (HOP-18)?
Answer: Its GI50 is > 100 µM (inactive).

Question: And the GI50 (OVCAR-4)?
Answer: The GI50 was > 100 µM (inactive).

Question: And the GI50 (ACHN)?
Answer: Its GI50 is > 100 µM (inactive).

Question: And the GI50 (SNB-19)?
Answer: Its GI50 is > 100 µM (inactive).

Question: What about the GI50 (OVCAR-5) of the same compound?
Answer: Its GI50 is > 100 µM (inactive).

Question: What about the GI50 (HL-60) of the same compound?
Answer: The GI50 was > 100 µM (inactive).

Question: And the GI50 (LXFL 529)?
Answer: The GI50 was > 100 µM (inactive).

Question: And the GI50 (M19-MEL)?
Answer: Its GI50 is > 100 µM (inactive).

Question: What about the GI50 (SK-MEL-28) of the same compound?
Answer: The GI50 was > 100 µM (inactive).

Question: What about the GI50 (HT-29) of the same compound?
Answer: Its GI50 is > 100 µM (inactive).

Question: And the GI50 (LOX IMVI)?
Answer: Its GI50 is > 100 µM (inactive).

Question: What about the GI50 (KM12) of the same compound?
Answer: Its GI50 is > 100 µM (inactive).

Question: What about the GI50 (SW-620) of the same compound?
Answer: Its GI50 is > 100 µM (inactive).

Question: And the GI50 (KM-20L2)?
Answer: Its GI50 is > 100 µM (inactive).

Question: And the GI50 (TK-10)?
Answer: The GI50 was > 100 µM (inactive).

Question: What about the GI50 (UO-31) of the same compound?
Answer: Its GI50 is > 100 µM (inactive).

Question: And the GI50 (U-251)?
Answer: Its GI50 is > 100 µM (inactive).

Question: And the GI50 (NCI-H23)?
Answer: The GI50 was > 100 µM (inactive).

Question: What about the GI50 (NCI-H522) of the same compound?
Answer: Its GI50 is > 100 µM (inactive).

Question: What about the GI50 (UACC-62) of the same compound?
Answer: Its GI50 is > 100 µM (inactive).

Question: What about the GI50 (SF-268) of the same compound?
Answer: Its GI50 is > 100 µM (inactive).

Question: And the GI50 (COLO 205)?
Answer: Its GI50 is > 100 µM (inactive).

Question: What about the GI50 (IGROV-1) of the same compound?
Answer: The GI50 was > 100 µM (inactive).

Question: What about the GI50 (A498) of the same compound?
Answer: Its GI50 is > 100 µM (inactive).

Question: What about the GI50 (HCT-15) of the same compound?
Answer: The GI50 was > 100 µM.

Question: And the GI50 (EKVX)?
Answer: Its GI50 is > 100 µM (inactive).

Question: And the GI50 (SNB-75)?
Answer: The GI50 was 67.3 µM (inactive).

Question: And the GI50 (K562)?
Answer: Its GI50 is > 100 µM (inactive).

Question: What about the GI50 (SF-539) of the same compound?
Answer: Its GI50 is > 100 µM (inactive).

Question: What about the GI50 (RPMI-8226) of the same compound?
Answer: The GI50 was > 100 µM (inactive).

Question: What about the GI50 (OVCAR-8) of the same compound?
Answer: Its GI50 is > 100 µM (inactive).

Question: `Cc1c2cc[n+](C)cc2c(C)c2c1[nH]c1ccc(OC(C)C)cc12` was tested. Which GI50 (HOP-92) did it give?
Answer: Its GI50 is 3.01 µM (inactive).

Question: What about the GI50 (MOLT-4) of the same compound?
Answer: Its GI50 is 5.18 µM (inactive).

Question: And the GI50 (SK-MEL-2)?
Answer: The GI50 was 2.56 µM (inactive).

Question: What about the GI50 (DMS-273) of the same compound?
Answer: The GI50 was 2.69 µM (inactive).

Question: And the GI50 (SK-MEL-5)?
Answer: Its GI50 is 1.48 µM (inactive).

Question: What about the GI50 (M14) of the same compound?
Answer: Its GI50 is 10.4 µM (inactive).

Question: What about the GI50 (A549) of the same compound?
Answer: The GI50 was 3.44 µM (inactive).

Question: And the GI50 (Malme-3M)?
Answer: The GI50 was 1.97 µM (inactive).

Question: What about the GI50 (OVCAR-3) of the same compound?
Answer: The GI50 was 3.1 µM (inactive).

Question: What about the GI50 (NCI-H460) of the same compound?
Answer: Its GI50 is 2.6 µM (inactive).

Question: And the GI50 (SN12C)?
Answer: The GI50 was 0.542 µM (active).

Question: And the GI50 (UACC-257)?
Answer: Its GI50 is 2.82 µM (inactive).

Question: And the GI50 (HOP-18)?
Answer: The GI50 was 3.75 µM (inactive).

Question: And the GI50 (OVCAR-4)?
Answer: Its GI50 is 3.85 µM (inactive).

Question: And the GI50 (ACHN)?
Answer: Its GI50 is 16.1 µM (inactive).

Question: And the GI50 (HCT-116)?
Answer: The GI50 was 3.77 µM (inactive).

Question: And the GI50 (OVCAR-5)?
Answer: Its GI50 is 12.9 µM (inactive).

Question: And the GI50 (HL-60)?
Answer: Its GI50 is 2.43 µM (inactive).

Question: What about the GI50 (LXFL 529) of the same compound?
Answer: The GI50 was 0.875 µM (active).

Question: What about the GI50 (M19-MEL) of the same compound?
Answer: Its GI50 is 2.09 µM (inactive).

Question: What about the GI50 (SK-MEL-28) of the same compound?
Answer: Its GI50 is 4.42 µM (inactive).

Question: And the GI50 (HT-29)?
Answer: The GI50 was 4.25 µM (inactive).

Question: What about the GI50 (LOX IMVI) of the same compound?
Answer: The GI50 was 6.95 µM (inactive).

Question: What about the GI50 (KM12) of the same compound?
Answer: Its GI50 is 2.75 µM (inactive).

Question: What about the GI50 (SW-620) of the same compound?
Answer: Its GI50 is 3.12 µM (inactive).

Question: And the GI50 (KM-20L2)?
Answer: Its GI50 is 4.72 µM (inactive).

Question: And the GI50 (TK-10)?
Answer: The GI50 was 39.3 µM (inactive).

Question: And the GI50 (UO-31)?
Answer: The GI50 was 27.3 µM (inactive).

Question: And the GI50 (NCI-H23)?
Answer: Its GI50 is 2.51 µM (inactive).

Question: And the GI50 (NCI-H522)?
Answer: Its GI50 is 1.98 µM (inactive).

Question: What about the GI50 (UACC-62) of the same compound?
Answer: The GI50 was 2.71 µM (inactive).

Question: What about the GI50 (SF-268) of the same compound?
Answer: Its GI50 is 0.418 µM (active).

Question: And the GI50 (COLO 205)?
Answer: Its GI50 is 1.39 µM (inactive).

Question: What about the GI50 (IGROV-1) of the same compound?
Answer: Its GI50 is 2.55 µM (inactive).

Question: And the GI50 (A498)?
Answer: Its GI50 is 12 µM (inactive).

Question: And the GI50 (HCT-15)?
Answer: Its GI50 is > 58.2 µM.

Question: And the GI50 (EKVX)?
Answer: The GI50 was 5.06 µM (inactive).

Question: And the GI50 (SNB-75)?
Answer: Its GI50 is 0.384 µM (active).

Question: What about the GI50 (SF-539) of the same compound?
Answer: Its GI50 is 1.01 µM (active).

Question: And the GI50 (RPMI-8226)?
Answer: Its GI50 is 7.74 µM (inactive).
